Measured values taken from patent US20240269298A1, “PHOSPHONYL DERIVATIVE, AND COMPOSITION AND PHARMACEUTICAL APPLICATION THEREOF” (XIZANG HAISCO PHARMACEUTICAL CO., LTD., priority 2021, published 2024).
Where two headings read alike, the source gives them in different places.

Experiments:
A431 (EGFR-WT) cells = assay: Inhibitory activity on proliferation of A431 (EGFR-WT) cells (CTG, 72 h); assay type: cell-based; settings: Homo sapiens, A-431
Method in brief: (§1)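 IC50 values come from S-shaped dose-survival fits of CTG signal expressed as % of vehicle. Compound exposure lasted 72 h at 37 °C with 0.1% DMSO; seeding was 3000 A431 cells/well in DMEM+10% FBS and 1000 NCI-H1975 cells/well in RPMI1640+10% FBS.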

[1] = Pharmacokinetic test in mice; assay type: in vivo; settings: male, ICR, mouse, po, administration i.g. (10 mg/kg), plasma
Experimental: Test objective: In this experiment, a single dose of test compounds was administered to ICR mice intravenously and intragastrically, the concentrations of the test compounds in plasma of mice were measured, and the pharmacokinetic characteristics and bioavailability of the test compounds in mice were evaluated.
Experimental animals: male ICR mice, 20-25 g, purchased from BEIJING HFK BIOSCIENCE CO., LTD. with the laboratory animal production license number of SCXK (JING) 2019-0008; or purchased from CHENGDU DDOSSY EXPERIMENTAL ANIMALS CO., LTD. (SCXK (CHUAN) 2020-030); or purchased from HUNAN SJA LABORATORY ANIMAL CO., LTD. (SCXK (XIANG) 2019-0004).
Experimental method: on the day of the experiment, ICR mice were randomly grouped according to their body weights. The mice were fasted with water available for 12 to 14 hours one day before the administration, and were fed 4 hours after the administration.
Sampling: before and after the administration, blood was taken from the orbits of the mice under isoflurane anesthesia, and placed in an EDTAK2 centrifuge tube. Centrifugation was carried out at 5000 rpm at 4° C. for 10 min, and the plasma was collected.
Time points for plasma collection in G1&G2 groups: 0, 5 min, 15 min, 30 min, 1h, 2h, 4h, 6h, 8h, and 24 h; • time points for plasma collection in G3 group: 0, 5 min, 15 min, 30 min, 1 h, 2 h, 4 h, 6h, 8h, and 24 h; • before analysis and detection, all samples were stored at −80° C. The samples were analyzed quantitatively by LC-MS/MS.

[2] = system: NCI-H1975 (EGFR-L858R-T790M) cells; assay: Inhibitory activity on proliferation of NCI-H1975 (EGFR-L858R-T790M) cells (CTG, 72 h); assay type: cell-based; settings: Homo sapiens
Method in brief: as §1

[3] = read-out: IC50 (value in brackets)

Structure (SMILES)	IC50 (A431 (EGFR-WT) cells)	AUC(0-t) [1]	IC50 ([2]; read-out: IC50 (class symbol))	IC50 [2, 3]	AUC [1]	half-life [1]
COc1cc(N2CCC(CN3CCC4(CCCN(c5ccc6c(c5)C(=O)N(C5CCC(=O)NC5=O)C6=O)C4)CC3)CC2)c(-c2cnn(C)c2)cc1Nc1ncc(Br)c(Nc2ccc(-c3ccccc3)cc2P(C)(C)=O)n1 (stereo not shown) [Compound 38, 5-(9-((1-(4-((5-bromo-4-((3-(dimethylphosphoryl)-[1,1′-biphenyl]-4-yl)amino)pyrimidin-2-yl)amino)-5-methoxy-2-(1-methyl-1H-pyrazol-4-yl)phenyl)piperidin-4-yl)methyl)-2,9-diazaspiro[5.5]undecan-2-yl)-2-(2,6-dioxopiperidin-3-yl)isoindoline-1,3-dione]	≥ 10000 nM	3730 ng·h/mL	< 100 nM	60 nM		
COc1cc(N2CCC(CN3CCC4(CC3)CCN(c3ccc5c(c3)C(=O)N(C3CCC(=O)NC3=O)C5=O)CC4)CC2)c(-c2cnn(C)c2)cc1Nc1ncc(Cl)c(Nc2ccc(-c3ccccc3)cc2P(C)(C)=O)n1 (stereo not shown) [Compound 48, 5-(9-((1-(4-((5-chloro-4-((3-(dimethylphosphoryl)-[1,1′-biphenyl]-4-yl)amino)pyrimidin-2-yl)amino)-5-methoxy-2-(1-methyl-1H-pyrazol-4-yl)phenyl)piperidin-4-yl)methyl)-3,9-diazaspiro[5.5]undecan-3-yl)-2-(2,6-dioxopiperidin-3-yl)isoindoline-1,3-dione]	≥ 10000 nM	7790 ng·h/mL	< 100 nM	32 nM		
COc1cc(N2CCC(N3CCN(CC4CCN(c5ccc6c(c5)C(=O)N(C5CCC(=O)NC5=O)C6=O)CC4)CC3)CC2)c(-c2cnn(C)c2)cc1Nc1ncc(Br)c(Nc2ccc(C3CC3)cc2P(C)(C)=O)n1 (stereo not shown) [Compound 55, 5-(4-((4-(1-(4-((5-bromo-4-((4-cyclopropyl-2-(dimethylphosphoryl)phenyl)amino)pyrimidin-2-yl)amino)-5-methoxy-2-(1-methyl-1H-pyrazol-4-yl)phenyl)piperidin-4-yl)piperazin-1-yl)methyl)piperidin-1-yl)-2-(2,6-dioxopiperidin-3-yl)isoindoline-1,3-dione]	≥ 10000 nM	19900 ng·h/mL	< 100 nM	30 nM		
COc1cc(N2CCC(N3CCN(CC4CCN(c5ccc6c(c5)C(=O)N(C5CCC(=O)NC5=O)C6=O)CC4)CC3)CC2)c(-c2cnn(C)c2)cc1Nc1ncc(Cl)c(Nc2ccc(-c3ccccc3)cc2P(C)(C)=O)n1 (stereo not shown) [Compound 58, 5-(4-((4-(1-(4-((5-chloro-4-((3-(dimethylphosphoryl)-[1,1′-biphenyl]-4-yl)amino)pyrimidin-2-yl)amino)-5-methoxy-2-(1-methyl-1H-pyrazol-4-yl)phenyl)piperidin-4-yl)piperazin-1-yl)methyl)piperidin-1-yl)-2-(2,6-dioxopiperidin-3-yl)isoindoline-1,3-dione]	≥ 10000 nM	16300 ng·h/mL	< 100 nM	72 nM		
COc1cc(N2CCC(N3CCN(C4CC5(CCN(c6ccc7c(c6)C(=O)N(C6CCC(=O)NC6=O)C7=O)CC5)C4)CC3)CC2)c(-c2cnn(C)c2)cc1Nc1ncc(Br)c(Nc2ccc(-c3ccccc3)cc2P(C)(C)=O)n1 (stereo not shown) [Compound 63, 5-(2-(4-(1-(4-((5-bromo-4-((3-(dimethylphosphoryl)-[1,1′-biphenyl]-4-yl)amino)pyrimidin-2-yl)amino)-5-methoxy-2-(1-methyl-1H-pyrazol-4-yl)phenyl)piperidin-4-yl)piperazin-1-yl)-7-azaspiro[3.5]nonan-7-yl)-2-(2,6-dioxopiperidin-3-yl)isoindoline-1,3-dione]	≥ 10000 nM	14700 ng·h/mL	< 100 nM	90 nM		
COc1cc(N2CCC(N3CCN(CC4CCN(c5ccc6c(c5)C(=O)N(C5CCC(=O)NC5=O)C6=O)CC4)CC3)CC2)c(-c2cnn(C)c2)cc1Nc1ncc(Br)c(Nc2ccc3ccccc3c2P(C)(C)=O)n1 (stereo not shown) [Compound 71, 5-(4-((4-(1-(4-((5-bromo-4-((1-(dimethylphosphoryl)naphthalen-2-yl)amino)pyrimidin-2-yl)amino)-5-methoxy-2-(1-methyl-1H-pyrazol-4-yl)phenyl)piperidin-4-yl)piperazin-1-yl)methyl)piperidin-1-yl)-2-(2,6-dioxopiperidin-3-yl)isoindoline-1,3-dione]	≥ 10000 nM	24700 ng·h/mL	< 100 nM	29 nM		

Results, then the compound that gave them:

IC50 (A431 (EGFR-WT) cells)	AUC(0-t) [1]	IC50 ([2]; read-out: IC50 (class symbol))	IC50 [2, 3]	AUC [1]	half-life [1]	Structure (SMILES)
≥ 10000 nM	16400 ng·h/mL	< 100 nM	31 nM			COc1cc(N2CCC(N3CCN(CC4CCN(c5ccc6c(c5)C(=O)N(C5CCC(=O)NC5=O)C6=O)CC4)CC3)CC2)c(-c2cnn(C)c2)cc1Nc1ncc(Cl)c(Nc2ccc3ccccc3c2P(C)(C)=O)n1 (stereo not shown) [Compound 72, 5-(4-((4-(1-(4-((5-chloro-4-((1-(dimethylphosphoryl)naphthalen-2-yl)amino)pyrimidin-2-yl)amino)-5-methoxy-2-(1-methyl-1H-pyrazol-4-yl)phenyl)piperidin-4-yl)piperazin-1-yl)methyl)piperidin-1-yl)-2-(2,6-dioxopiperidin-3-yl)isoindoline-1,3-dione]
≥ 10000 nM	13700 ng·h/mL	< 100 nM	26 nM			COc1cc(N2CCC(N3CCN(CC4CCN(c5ccc6c(c5)C(=O)N(C5CCC(=O)NC5=O)C6=O)CC4)CC3)CC2)c(-c2cnn(C)c2)cc1Nc1ncc(Br)c(Nc2ccc(C)c(C)c2P(C)(C)=O)n1 (stereo not shown) [Compound 73, 5-(4-((4-(1-(4-((5-bromo-4-((2-(dimethylphosphoryl)-3,4-dimethylphenyl)amino)pyrimidin-2-yl)amino)-5-methoxy-2-(1-methyl-1H-pyrazol-4-yl)phenyl)piperidin-4-yl)piperazin-1-yl)methyl)piperidin-1-yl)-2-(2,6-dioxopiperidin-3-yl)isoindoline-1,3-dione]
≥ 10000 nM	19600 ng·h/mL	< 100 nM	31 nM			COc1cc(N2CCC(N3CCN(CC4CCN(c5ccc6c(c5)C(=O)N(C5CCC(=O)NC5=O)C6=O)C4)CC3)CC2)c(-c2cnn(C)c2)cc1Nc1ncc(Br)c(Nc2ccc(-c3ccccc3)cc2P(C)(C)=O)n1 (stereo not shown) [Compound 76, 5-(3-((4-(1-(4-((5-bromo-4-((3-(dimethylphosphoryl)-[1,1′-biphenyl]-4-yl)amino)pyrimidin-2-yl)amino)-5-methoxy-2-(1-methyl-1H-pyrazol-4-yl)phenyl)piperidin-4-yl)piperazin-1-yl)methyl)pyrrolidin-1-yl)-2-(2,6-dioxopiperidin-3-yl)isoindoline-1,3-dione]
≥ 10000 nM		100 to 500 nM	129 nM	81900 ng·h/mL	10.4 h	COc1cc(N2CCN(c3ccc4c(c3)C(=O)N(C3CCC(=O)NC3=O)C4=O)CC2)c(-c2cnn(C)c2)cc1Nc1ncc(Br)c(Nc2ccc(-c3ccccc3)cc2P(C)(C)=O)n1 (stereo not shown) [Compound 80, 5-(4-(4-((5-bromo-4-((3-(dimethylphosphoryl)-[1,1′-biphenyl]-4-yl)amino)pyrimidin-2-yl)amino)-5-methoxy-2-(1-methyl-1H-pyrazol-4-yl)phenyl)piperazin-1-yl)-2-(2,6-dioxopiperidin-3-yl)isoindoline-1,3-dione]
		< 100 nM	27 nM	86600 ng·h/mL	5.91 h	COc1cc(N2CCC(CN3CCN(c4ccc5c(c4)C(=O)N(C4CCC(=O)NC4=O)C5=O)CC3)CC2)c(-c2cnn(C)c2)cc1Nc1ncc(Br)c(Nc2ccc(F)cc2P(C)(C)=O)n1 (stereo not shown) [Compound 141, 5-(4-((1-(4-((5-bromo-4-((2-(dimethylphosphoryl)-4-fluorophenyl)amino)pyrimidin-2-yl)amino)-5-methoxy-2-(1-methyl-1H-pyrazol-4-yl)phenyl)piperidin-4-yl)methyl)piperazin-1-yl)-2-(2,6-dioxopiperidin-3-yl)isoindoline-1,3-dione]
		< 100 nM	33 nM	104000 ng·h/mL	5.12 h	COc1cc(N2CCC(CN3CCN(c4ccc5c(c4)C(=O)N(C4CCC(=O)NC4=O)C5=O)CC3)CC2)c(-c2cnn(C)c2)cc1Nc1ncc(Cl)c(Nc2ccc(F)cc2P(C)(C)=O)n1 (stereo not shown) [Compound 142, 5-(4-((1-(4-((5-chloro-4-((2-(dimethylphosphoryl)-4-fluorophenyl)amino)pyrimidin-2-yl)amino)-5-methoxy-2-(1-methyl-1H-pyrazol-4-yl)phenyl)piperidin-4-yl)methyl)piperazin-1-yl)-2-(2,6-dioxopiperidin-3-yl)isoindoline-1,3-dione]
